# Data reported in patent publication US10463649B2, “Inhibitors of Mc1-1 as drugs to overcome resistance to BRAF inhibitors and MEK inhibitors” (Texas Tech University System, priority 2015, dated 2019).
# What was measured:
# A375-DR cells = assay: SRB cytotoxicity in dabrafenib resistant A375-DR cells; type: cell-based; settings: 72 hours
# Protocol: (§1) A375, SK-MEL-28, SK-MEL-5 and WM-239 were treated (FIG. 7A) dabrafenib and trametinib and (FIG. 7B) vemurafenib and trametinib for 72 hours. Following the treatment, Mcl-1 expression was analyzed by western blotting.
# (§2) Generation of BRAF-inhibitor resistant cell lines. Vemurafenib resistant clones of A375 and SK-MEL-28 were generated by continuous exposure of cells to escalating concentrations of vemurafenib over a period of one year. The cells were treated with vemurafenib for 72 hours after which fresh media was added to the cells. In all, cells were exposed weekly to two treatments of vemurafenib for 72 hours each with a 24 hour recovery period between the treatments. […] Similarly, dabrafenib resistant cells were cultured by incubating the cells with increasing concentrations of the drug for a period of 3 months as described above. The fold resistant was intermittently evaluated by cytotoxicity analysis. Vemurafenib resistant cell lines were referred to as SK-MEL-28-R or A375-R and dabrafenib resistant cell lines were referred to as A375-DR, SK-MEL-28-DR or WM-239-DR. […] Here, A375 cells were injected subcutaneously in nude mice. When palpable tumors were formed, the mice were orally treated with 30 mg/kg vemurafenib twice a day. After a month, the tumors the resisted vemurafenib treatments were extracted and cultured in vitro.
# WM-239-DR cells = assay: SRB cytotoxicity in dabrafenib resistant WM-239-DR cells; type: cell-based; settings: 72 hours
# Protocol: as §1, §2
# WM-239 cells = assay: SRB cytotoxicity in WM-239 cells; type: cell-based; settings: 72 hours, read-out: IC50 of dabrafenib
# SK-MEL-28-DR cells = assay: SRB cytotoxicity in dabrafenib resistant SK-MEL-28-DR cells; type: cell-based; settings: 72 hours
# Protocol: as §1, §2
# Mcl-1 [1] = assay: Western blotting for Mcl-1 expression in melanoma cells treated with dabrafenib and trametinib; type: cell-based; settings: A375, SK-MEL-28, SK-MEL-5 and WM-239 cells, 72 hours; dabrafenib 10 nM
# Protocol: as §1
# A combination of BRAF inhibitor (dabrafenib) and MEK1/2 inhibitor (trametinib) for the treatment of late phase malignant melanoma has been approved by the FDA.
# [2] = test system: SK-MEL-28 cells transfected with Mcl-1 plasmid; assay: SRB cell survival in SK-MEL-28 cells transfected with Mcl-1 plasmid; type: cell-based; settings: SK-MEL-28 transfected with Mcl-1 plasmid, 10 nM dabrafenib, 2 nM trametinib or the combination, 72 hours
# Protocol: FIG. 3A (A375 cells) and FIG. 3B SK-MEL-28 cells untransfected or transfected with Mcl-1 plasmid were treated with 0.2 μM and 0.4 μM vemurafenib for 72 hours. The cell survival was evaluated by sulforhodamine B assay. […] FIG. 3E A375 and A375-Mcl-1+/+ or FIG. 3F, SK-MEL-28 and SK-MEL-28-Mcl-1+/+ were treated with 0.2 μM and 0.4 μM vemurafenib for 72 hours. The cell survival was evaluated by sulforhodamine B assay.
# FIG. 8A (A375) and FIG. 8B (SK-MEL-28) untransfected or transfected with Mcl-1 plasmid were treated with 10 nM dabrafenib or 2 nM trametinib for 72 hours. FIG. 8C A375 and FIG. 8D SK-MEL 28 cells untransfected or transfected with Mcl-1 plasmid were treated with 400 nM vemurafenib or 2 nM trametinib for 72 hours. The cell survival was evaluated by sulforhodamine B assay.
# Mcl-1 overexpression. A375 or SK-MEL-28 cells were transiently or stably transfected with plasmid overexpressing Mcl-1 by nucleofection kit (Lonza, Basel, Switzerland) according to manufacturer's protocol and previously described by the inventors (26). Briefly, 2×10^6 cells were suspended in a reaction mixture from the kit specific to the cell line (Kit V for A375 and Kit R for SK-MEL-28 cells). The cells were transferred to the cuvettes and nucleofected using the nucleofector instrument (Amaxa, Cologne, Germany). […]
# SK-MEL-28 cells = assay: Cell viability / cytotoxicity by sulforhodamine B (SRB) assay in SK-MEL-28 cells
# A375 cells = assay: Cell viability / cytotoxicity by sulforhodamine B (SRB) assay in A375 cells
# Protocol: Each study was performed three times independently.
# Mcl-1 [3] = assay: Western blotting for Mcl-1 and Cl.PARP in melanoma cells treated with PL; type: cell-based; settings: SK-MEL-28 and Sk-MEL-2 cells, 5, 7.5 and 10 μM PL, 48 hours
# A375-R cells [4] = assay: SRB cell survival in vemurafenib resistant A375-R cells; type: cell-based; settings: A375-R cells, 500 nM TW-37 alone
# Protocol: (§3) Each study was performed three times independently. Mcl-1 inhibitor overcomes vemurafenib resistance in melanoma cells. […] The cell survival was evaluated by sulforhodamine B assay.
# (§4) FIGS. 4A to 4D show the silencing Mcl-1 reverses vemurafenib resistance. […] The cell survival was evaluated by sulforhodamine B assay.
# as §2
# (§5) Mcl-1 silencing. Silencing of Mcl-1 was achieved according to the protocol described by the inventors (27). Briefly, 0.3×10^6 cells were plated in OPTI-MEM without antibiotics and transfected with either Mcl-1 siRNA or scrambled siRNA. Complexes were prepared by incubating […] siRNA with 8 μl siPORT transfection reagent in 200 μl OPTI-MEM media without serum or antibiotic for 20 minutes. These complexes were then added to the cells. Six hours after transfection, complexes were replaced with fresh medium.
# Mcl-1 [5] = assay: Western blotting and immunohistochemistry of A375-R tumors; parameters: species or system mice; settings: A375-R tumors at termination of the in vivo studies, compared with control group
# Protocol: (§6) FIG. 5A, A375-R cells were injected subcutaneously in female athymic nude mice. Once the tumor volume reach 150 mm3, the mice were randomly divided into 4 groups (n=7 in each group) and the treatment was started as described under ‘Material and Method’ section. Tumor volumes were measure thrice a week by vernier calipers and the values were plotted as Mean±S.E.M. FIG. 5B, at day 30, the mice were sacrifice, tumors were extracted and weighed. The values are plotted as mean±S.D. *, p<0.05 as compared to control. #, p<0.05 as compared to vemurafenib treated group. $, p<0.05 as compared to TW-37 treated group. […] FIG. 5D, Formalin fixed paraffin embedded tumor sections were subjected to immunohistochemistry. Representative images of the tumor sections stained with Mcl-1, p-ERK and cleaved caspase 3.
# FIGS. 6A to 6D show silencing Mcl-1 suppresses the growth of melanoma tumors resistance to vemurafenib. FIG. 6A, A375-R cells were injected subcutaneously in female athymic nude mice. […]
# Tumor Therapy. […] Tumor measurements were taken thrice a week by vernier calipers and the volume was calculated by the formula V=length*(breadth)2/2 as previously described (28-30). […]
# Immunohistochemistry. Expression of Mcl-1, Cleaved Caspase 3 and p-ERK in tumor samples were analyzed by immunohistochemistry in paraffin sections five mice from each group. […]
# SK-MEL-28-R cells = assay: SRB cell survival in vemurafenib resistant SK-MEL-28-R cells; type: cell-based; settings: SK-MEL-28-R cells, 500 nM TW-37 alone
# Protocol: as §3, §4, §2, §5
# A375-R cells [6] = assay: Tumor therapy: A375-R xenografts in athymic nude mice; type: in vivo
# Protocol: as §6
# FIGS. 6A to 6D show silencing Mcl-1 suppresses the growth of melanoma tumors resistance to vemurafenib. FIG. 6A, A375-R cells were injected subcutaneously in female athymic nude mice. Once the tumor volume reach 150 mm3, the mice were randomly divided into 4 groups (n=6 in each group) and the treatment was started as described under ‘Material and Method’ section. Tumor volumes were measure thrice a week by vernier calipers and the values were plotted as Mean±S.E.M. FIG. 6B, at day 30, the mice were sacrifice, tumors were extracted and weighed. The values are plotted as mean±S.D. *, p<0.05 as compared to control. #, p<0.05 as compared to vemurafenib treated group. $, p<0.05 as compared to TW-37 treated group. […] FIG. 6D, Formalin fixed paraffin embedded tumor sections were subjected to immunohistochemistry. Representative images of the tumor sections stained with Mcl-1, p-ERK and cleaved caspase 3.
# Tumor Therapy. All the studies involving animals were approved by the Institutional Animal Care and Use Committee. About 5-6 weeks old athymic nude mice (Charles River, Wilmington, Mass., USA) were allowed to acclimatize for one week prior to the beginning of the studies. Mice were injected subcutaneously with 3.5×10^6 A375-R cells. When the tumor volume reached to 150 mm3, mice were randomly segregated into several groups with 6-7 mice in each group. Vemurafenib, formulated as MBP was suspended at a desired concentration in a vehicle containing 2% Klucel LF and adjusted to pH 4 with HCl, was given at a dose of 25 mg/kg twice a day through oral gavage. TW-37 in PBS/ethanol/Tween 80 was administered intraperitonially at a dose of 30 mg/kg thrice a week. Mcl-1 or scrambled siRNA was administered twice a week directly into the tumors (intra-tumoral injection) as described by the inventors previously (27). Tumor measurements were taken thrice a week by vernier calipers and the volume was calculated by the formula V=length*(breadth)2/2 as previously described (28-30). At the end of the study, animals were sacrificed and tumors were excised and fixed in formalin for immunohistochemistry or flash frozen in liquid nitrogen for western blotting analysis as described previously by the inventors (31).
smiles,measurement,setting,value
CC(C)(C)c1nc(-c2cccc(NS(=O)(=O)c3c(F)cccc3F)c2F)c(-c2ccnc(N)n2)s1 [dabrafenib],IC50,A375-DR cells,> 100 nM
same,IC50,WM-239-DR cells,> 100 nM
same,IC50,WM-239 cells,6 nM
same,IC50,SK-MEL-28-DR cells,> 100 nM
same,Expression of Mcl-1 (western blotting),Mcl-1 [1],significantly induced the expression of Mcl-1
same,Reduction in cell survival upon Mcl-1 overexpression,[2],completely blocked the effect
same,IC50,"SK-MEL-28 cells; read-out: IC50 of dabrafenib, 72 hours",2 nM
same,IC50,"A375 cells; Homo sapiens, A-375, 72 h, read-out: IC50 of dabrafenib",5 nM
COc1cc(/C=C/C(=O)N2CCC=CC2=O)cc(OC)c1OC [PL],Inhibition of Mcl-1 (western blotting),Mcl-1 [3],inhibits Mcl-1
CC(C)c1ccccc1Cc1cc(C(=O)Nc2ccc(S(=O)(=O)c3ccccc3C(C)(C)C)cc2)c(O)c(O)c1O [TW-37],Decrease of cell survival,A375-R cells [4],25%
same,Expression of Mcl-1 in tumors (western blotting and immunohistochemistry),Mcl-1 [5],diminished expression of Mcl-1
same,Reduction of growth,SK-MEL-28-R cells,25%
same,Average tumor volume,"A375-R cells [6]; day 30, vemurafenib 25 mg/kg twice a day oral, TW-37 30 mg/kg i.p. thrice a week, Mcl-1 siRNA intratumoral twice a week",870±187.8 mm3
same,Reduction in tumor growth (tumor volume) as compared to control,"A375-R cells [6]; day 30, versus control group",48%
same,Reduction in tumor growth (tumor volume) as compared to vemurafenib treated group,"A375-R cells [6]; day 30, versus vemurafenib group",46%
same,Reduction of tumor weight as compared to control,"A375-R cells [6]; tumors weighed at day 30, versus control",47%
same,Reduction of tumor weight as compared to vemurafenib treated group,"A375-R cells [6]; tumors weighed at day 30, versus vemurafenib group",48%
same,Decrease of cell viability,SK-MEL-28 cells; 500 nM TW-37 alone,58%
same,Decrease of cell viability,"A375 cells; A375 cells, 500 nM TW-37 alone",60%
